Key:
crabgrass, large [1] = experiment: Test A preemergence; type: in vivo, Digitaria sanguinalis; conditions: preemergence
In short: (§1)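 Pre- and postemergence greenhouse test; loam+sand; cpd in non-phytotox. solvent/surfactant; post at 1–2 leaf, 2–10 cm; visual score ~10 d, 0 = none, 100 = complete control.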

foxtail, giant [2] = experiment: Test A preemergence; type: in vivo, Setaria faberii; conditions: preemergence
In short: as §1

velvetleaf [3] = experiment: Test A preemergence; type: in vivo, Abutilon theophrasti; conditions: preemergence
In short: as §1

foxtail, giant [4] = experiment: Test A postemergence; type: in vivo, Setaria faberii
In short: as §1

morningglory = experiment: Test A postemergence; type: in vivo, Ipomoea spp.
In short: as §1

rice = experiment: Test B flood; type: in vivo, Oryza sativa; conditions: 250 g ai/ha, visual rating on 0 to 100 scale (0 no effect, 100 complete control), 13 to 15 days
In short: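 Visual ratings on a 0–100 scale, where 0 means no effect and 100 means complete control, were assigned by comparison with controls 13 to 15 days after treatment. Compounds went into paddy water over 2-leaf plants flooded to 3 cm.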

lambsquarters = experiment: Test C preemergence; type: in vivo, Chenopodium album; conditions: for Plant response rating (scale of 0 to 100), Lambsquarters: Preemergence, 250 g ai/ha; for Lambsquarters plant response rating / Plant response rating, Lambsquarters: preemergence; for Plant response rating, Lambsquarters: scale 0 to 100, 0 = no effect, 100 = complete control
In short: (§2)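 Seeds sown in loam–sand blend and treated preemergence with test chemicals in non-phytotoxic solvent with surfactant; postemergence plants in peat-based medium, treated at 2–18 cm (1- to 4-leaf stage). Greenhouse 13 to 15 days, then visual rating versus controls, 0 (no effect) to 100 (complete control).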

nutsedge, yellow = experiment: Test C preemergence; type: in vivo, Cyperus esculentus; conditions: for Plant response rating (scale of 0 to 100), Nutsedge, Yellow: Preemergence; for Nutsedge, Yellow plant response rating / Plant response rating, Nutsedge, Yellow: preemergence; for Plant response rating, Nutsedge, Yellow: scale 0 to 100, 0 = no effect, 100 = complete control
In short: as §2

barnyardgrass = experiment: Test C preemergence; type: in vivo, Echinochloa crus-galli; conditions: for Plant response rating (scale of 0 to 100), Barnyardgrass: Preemergence; for Barnyardgrass plant response rating / Plant response rating, Barnyardgrass: preemergence; for Plant response rating, Barnyardgrass: scale 0 to 100, 0 = no effect, 100 = complete control
In short: as §2

waterhemp = experiment: Test C preemergence; type: in vivo, Amaranthus rudis; conditions: for Plant response rating (scale of 0 to 100), Waterhemp: Preemergence; for Waterhemp plant response rating / Plant response rating, Waterhemp: preemergence; for Plant response rating, Waterhemp: scale 0 to 100, 0 = no effect, 100 = complete control
In short: as §2

galium = experiment: Test C postemergence; type: in vivo, Galium aparine; conditions: for Plant response rating (scale of 0 to 100 where 0 is no effect and 100 is complete control), Galium: Postemergence, 31 g ai/ha, visually evaluated after 13 to 15 days; for Galium plant response rating / Plant response rating, Galium: postemergence; for Galium plant response rating: 62 g ai/ha, scale 0 to 100
In short: as §2

corn = experiment: Test C postemergence; type: in vivo, Zea mays; conditions: for Plant response rating (scale of 0 to 100 where 0 is no effect and 100 is complete control), Corn: Postemergence, 31 g ai/ha, visually evaluated after 13 to 15 days; for Corn plant response rating / Plant response rating, Corn: postemergence; for Corn plant response rating: 62 g ai/ha, scale 0 to 100
In short: as §2

crabgrass, large [5] = experiment: Test C postemergence; type: in vivo, Digitaria sanguinalis; conditions: for Plant response rating (scale of 0 to 100 where 0 is no effect and 100 is complete control), Crabgrass, Large: Postemergence, 31 g ai/ha, visually evaluated after 13 to 15 days; for Crabgrass, Large plant response rating / Plant response rating, Crabgrass, Large: postemergence; for Crabgrass, Large plant response rating: 62 g ai/ha, scale 0 to 100
In short: as §2

velvetleaf [6] = experiment: Test C postemergence; type: in vivo, Abutilon theophrasti; conditions: for Plant response rating (scale of 0 to 100 where 0 is no effect and 100 is complete control), Velvetleaf: Postemergence, 31 g ai/ha, visually evaluated after 13 to 15 days; for Velvetleaf plant response rating / Plant response rating, Velvetleaf: postemergence; for Velvetleaf plant response rating: scale 0 to 100
In short: as §2

[7] = 125 g ai/ha, visual injury, 0 to 100 scale, approx. 10 days
[8] = 500 g ai/ha, visual injury after approx. 10 days, 0 to 100 scale (0 no effect, 100 complete control)
[9] = Postemergence, 500 g ai/ha, visual rating after approx. 10 days, 0 to 100 scale (0 no effect, 100 complete control)
[10] = postemergence, 125 g ai/ha, about 10 days, visual rating on 0 to 100 scale (0 no effect, 100 complete control)
[11] = 31 g ai/ha, visual rating, scale 0 to 100 (0 no effect, 100 complete control), 13 to 15 days
[12] = 125 g ai/ha, scale 0 to 100, 0 is no effect, 100 is complete control
[13] = 31 g ai/ha, scale 0 to 100 (0 no effect, 100 complete control), 13 to 15 days
[14] = 250 g ai/ha, scale 0 to 100 (0 no effect, 100 complete control)
[15] = 125 g ai/ha, scale 0 to 100, 0 no effect, 100 complete control
[16] = Postemergence, 500 g ai/ha, 0 to 100 scale (0 no effect, 100 complete control)
[17] = 62 g ai/ha, scale 0 to 100 (0 no effect, 100 complete control), 13 to 15 days
[18] = 125 g ai/ha, visual injury approx. 10 days after treatment
[19] = 250 g ai/ha, scale 0 to 100, 0 is no effect, 100 is complete control

## CCCc1cc(C(=O)NCC)nn1Cc1ccnc(C(F)(F)F)c1 [Compound 95]
crabgrass, large [1]; [7]
  Crabgrass, Large plant response rating: 100
crabgrass, large [1]; [8]
  Crabgrass, Large plant response rating: 100
foxtail, giant [2]; [7]
  Foxtail, Giant plant response rating: 100
foxtail, giant [2]; [8]
  Foxtail, Giant plant response rating: 100
Velvetleaf [3]; [7]
  Velvetleaf plant response rating: 90
Velvetleaf [3]; [8]
  Velvetleaf plant response rating: 100
foxtail, giant [4]; [9]
  Foxtail, Giant plant response rating: 100
foxtail, giant [4]; [10]
  Foxtail, Giant plant response rating: 100
morningglory; [9]
  Morningglory plant response rating: 100
morningglory; [10]
  Morningglory plant response rating: 90
rice
  Plant response rating, Rice: 20
lambsquarters
  Plant response rating (scale of 0 to 100), Lambsquarters: 100
lambsquarters; [11]
  Lambsquarters plant response rating: 100
lambsquarters; 62 g ai/ha, 13 to 15 days
  Plant response rating, Lambsquarters: 100
lambsquarters; [12]
  Lambsquarters plant response rating: 100
nutsedge, yellow; 250 g ai/ha
  Plant response rating (scale of 0 to 100), Nutsedge, Yellow: 90
nutsedge, yellow; [11]
  Nutsedge, Yellow plant response rating: 50
nutsedge, yellow; 62 g ai/ha, 13 to 15 days
  Plant response rating, Nutsedge, Yellow: 80
nutsedge, yellow; [12]
  Nutsedge, Yellow plant response rating: 85
barnyardgrass; 250 g ai/ha
  Plant response rating (scale of 0 to 100), Barnyardgrass: 100
barnyardgrass; [13]
  Barnyardgrass plant response rating: 100
barnyardgrass; 62 g ai/ha, 13 to 15 days
  Plant response rating, Barnyardgrass: 100
barnyardgrass; [12]
  Barnyardgrass plant response rating: 100
waterhemp; 250 g ai/ha
  Plant response rating (scale of 0 to 100), Waterhemp: 100
waterhemp; [11]
  Waterhemp plant response rating: 100
waterhemp; 62 g ai/ha, 13 to 15 days
  Plant response rating, Waterhemp: 100
waterhemp; [12]
  Waterhemp plant response rating: 100
galium
  Plant response rating (scale of 0 to 100 where 0 is no effect and 100 is complete control), Galium: 60
  Galium plant response rating: 80
galium; [14]
  Plant response rating, Galium: 90
galium; [15]
  Plant response rating, Galium: 90
corn
  Plant response rating (scale of 0 to 100 where 0 is no effect and 100 is complete control), Corn: 5
  Corn plant response rating: 10
corn; [14]
  Plant response rating, Corn: 10
corn; [15]
  Plant response rating, Corn: 10
crabgrass, large [5]
  Plant response rating (scale of 0 to 100 where 0 is no effect and 100 is complete control), Crabgrass, Large: 5
  Crabgrass, Large plant response rating: 10
crabgrass, large [5]; [14]
  Plant response rating, Crabgrass, Large: 45
crabgrass, large [5]; [15]
  Plant response rating, Crabgrass, Large: 40
Velvetleaf [6]
  Plant response rating (scale of 0 to 100 where 0 is no effect and 100 is complete control), Velvetleaf: 10
Velvetleaf [6]; 62 g ai/ha
  Velvetleaf plant response rating: 15
Velvetleaf [6]; [14]
  Plant response rating, Velvetleaf: 40
Velvetleaf [6]; [15]
  Plant response rating, Velvetleaf: 35

## CCOc1cc(C(=O)NC2CC2)nn1Cc1ccnc(OC(F)F)c1 [Compound 133]
foxtail, giant [2]; [7]
  Foxtail, Giant plant response rating: 100
foxtail, giant [2]; [8]
  Foxtail, Giant plant response rating: 100
foxtail, giant [4]; [16]
  Foxtail, Giant plant response rating: 100
foxtail, giant [4]; [10]
  Foxtail, Giant plant response rating: 100
rice
  Plant response rating, Rice: 20
lambsquarters
  Plant response rating (scale of 0 to 100), Lambsquarters: 100
lambsquarters; [11]
  Lambsquarters plant response rating: 75
lambsquarters; [17]
  Lambsquarters plant response rating: 100
lambsquarters; 125 g ai/ha, 13 to 15 days
  Plant response rating, Lambsquarters: 100
nutsedge, yellow; 250 g ai/ha
  Plant response rating (scale of 0 to 100), Nutsedge, Yellow: 85
nutsedge, yellow; [11]
  Nutsedge, Yellow plant response rating: 20
nutsedge, yellow; [17]
  Nutsedge, Yellow plant response rating: 25
nutsedge, yellow; 125 g ai/ha, 13 to 15 days
  Plant response rating, Nutsedge, Yellow: 70
barnyardgrass; 250 g ai/ha
  Plant response rating (scale of 0 to 100), Barnyardgrass: 100
barnyardgrass; [13]
  Barnyardgrass plant response rating: 65
barnyardgrass; [17]
  Barnyardgrass plant response rating: 60
barnyardgrass; 125 g ai/ha, 13 to 15 days
  Plant response rating, Barnyardgrass: 100
waterhemp; 250 g ai/ha
  Plant response rating (scale of 0 to 100), Waterhemp: 100
waterhemp; [11]
  Waterhemp plant response rating: 85
waterhemp; [17]
  Waterhemp plant response rating: 100
waterhemp; 125 g ai/ha, 13 to 15 days
  Plant response rating, Waterhemp: 100
galium
  Plant response rating (scale of 0 to 100 where 0 is no effect and 100 is complete control), Galium: 70
  Galium plant response rating: 70
galium; [14]
  Plant response rating, Galium: 80
galium; [15]
  Plant response rating, Galium: 70
corn
  Plant response rating (scale of 0 to 100 where 0 is no effect and 100 is complete control), Corn: 10
  Corn plant response rating: 10
corn; [14]
  Plant response rating, Corn: 35
corn; [15]
  Plant response rating, Corn: 10
crabgrass, large [5]
  Plant response rating (scale of 0 to 100 where 0 is no effect and 100 is complete control), Crabgrass, Large: 5
  Crabgrass, Large plant response rating: 5
crabgrass, large [5]; [14]
  Plant response rating, Crabgrass, Large: 35
crabgrass, large [5]; [15]
  Plant response rating, Crabgrass, Large: 10
Velvetleaf [6]
  Plant response rating (scale of 0 to 100 where 0 is no effect and 100 is complete control), Velvetleaf: 25
Velvetleaf [6]; 62 g ai/ha
  Velvetleaf plant response rating: 45
Velvetleaf [6]; [14]
  Plant response rating, Velvetleaf: 70
Velvetleaf [6]; [15]
  Plant response rating, Velvetleaf: 35

## CCCNC(=O)c1cc(CCC)n(Cc2cc(C(F)(F)F)nn2C)n1 [Compound 198]
crabgrass, large [1]; [18]
  Crabgrass, Large plant response rating (0 to 100 scale): 100
crabgrass, large [1]; [8]
  Crabgrass, Large plant response rating: 100
foxtail, giant [2]; [18]
  Foxtail, Giant plant response rating (0 to 100 scale): 100
foxtail, giant [2]; [8]
  Foxtail, Giant plant response rating: 90
Velvetleaf [3]; [18]
  Velvetleaf plant response rating (0 to 100 scale): 30
Velvetleaf [3]; [8]
  Velvetleaf plant response rating: 100
foxtail, giant [4]; [16]
  Foxtail, Giant plant response rating: 100
foxtail, giant [4]; [10]
  Foxtail, Giant plant response rating: 90
morningglory; Postemergence, 125 g ai/ha, 0 to 100 scale, 0 no effect, 100 complete control
  Morningglory plant response rating: 80
morningglory; [16]
  Morningglory plant response rating: 100
rice
  Plant response rating, Rice: 60
nutsedge, yellow; [11]
  Nutsedge, Yellow plant response rating: 5
nutsedge, yellow; [17]
  Nutsedge, Yellow plant response rating: 15
nutsedge, yellow; 125 g ai/ha, 13 to 15 days
  Plant response rating, Nutsedge, Yellow: 30
nutsedge, yellow; [19]
  Nutsedge, Yellow plant response rating: 65
barnyardgrass; [11]
  Barnyardgrass plant response rating: 100
barnyardgrass; [17]
  Barnyardgrass plant response rating: 100
barnyardgrass; 125 g ai/ha, 13 to 15 days
  Plant response rating, Barnyardgrass: 100
barnyardgrass; [19]
  Barnyardgrass plant response rating: 100
waterhemp; [11]
  Waterhemp plant response rating: 98
waterhemp; [17]
  Waterhemp plant response rating: 98
waterhemp; 125 g ai/ha, 13 to 15 days
  Plant response rating, Waterhemp: 100
waterhemp; [19]
  Waterhemp plant response rating: 100
galium
  Plant response rating (scale of 0 to 100 where 0 is no effect and 100 is complete control), Galium: 50
  Galium plant response rating: 85
galium; [14]
  Plant response rating, Galium: 90
galium; [15]
  Plant response rating, Galium: 85
corn
  Plant response rating (scale of 0 to 100 where 0 is no effect and 100 is complete control), Corn: 5
  Corn plant response rating: 10
corn; [14]
  Plant response rating, Corn: 15
corn; [15]
  Plant response rating, Corn: 10
crabgrass, large [5]
  Plant response rating (scale of 0 to 100 where 0 is no effect and 100 is complete control), Crabgrass, Large: 5
  Crabgrass, Large plant response rating: 5
crabgrass, large [5]; [14]
  Plant response rating, Crabgrass, Large: 30
crabgrass, large [5]; [15]
  Plant response rating, Crabgrass, Large: 15
Velvetleaf [6]; [14]
  Plant response rating, Velvetleaf: 50
Velvetleaf [6]
  Velvetleaf plant response rating: 40

Source: patent US20150105252A1, “SUBSTITUTED PYRAZOLES AS HERBICIDES” (E I DU PONT DE NEMOURS AND COMPANY, priority 2013, published 2015)
